Results on 15 molecules are retold here after patent publication US20050130221A1, “Synthesis for the preparation of compounds for screening as potential tubulin binding agents” (The Australian National University, priority 2001, published 2005).

Where two headings read alike, the source gives them in different places. Bounds are passed on as bounds.

The subject of data set [1] is T1, tubulin.
T1 construct: other: tubulin 10 μM; extent of assembly measured; asterisk: rate but not ex; tubulin 1.0 μM; [3H]colchicine; [3H]colchicin
The experiment in a line: Inhibition of [3H]colchicine binding to tubulin. Particulars: tubulin 1.0 μM, [3H]colchicine 5.0 μM.

For data set [2], the system named is Burkitt lymphoma CA46 cells. The experiment in a line: Inhibition of CA46 cell growth. The data set is classed as cell-based. Particulars: Homo sapiens.
For data set [3], the system named is tubulin. Particulars: background statement, literature; cited from earlier work.
For data set [4], the system named is T1, tubulin. The experiment in a line: Inhibition of tubulin polymerization. It counts as biochemical. Particulars: tubulin 10 μM; extent of assembly measured; asterisk: rate but not extent inhibited up to 40 μM.
Data set [5] deals with MCF-7 human breast carcinoma cell line. The experiment in a line: Inhibition of MCF-7 cell growth. It counts as cell-based.
The mark [6] stands for this setting: CA46, read-out: Inhibition of CA46 cell growth IC50.

For the molecule `COc1ccc(/C=C\c2cc(OC)c(OC)c(OC)c2)cc1O` [(A), Combretastatin A4, reference compound], the “Inhibition of colchicine binding (% inhibition), 5 μM inhibitor” value (“Inhibition … (% inhibition), 5 μM inhibitor” below) with tubulin [1] is 91%. In addition, the IC50 in data set [2] (Burkitt lymphoma CA46 cells, read-out: Inhibition of CA46 cell growth IC50) came out at 0.001 µM.

For `COc1ccc2[nH]c(-c3ccc4c(c3)OCO4)c(-c3cc(OC)c(OC)c(OC)c3)c2c1` [(C)], the tubulin binding activity result in the data set with tubulin [3] was “moderate”. `COc1ccc(-c2oc3cc(O)c(OC)cc3c2-c2cc(OC)c(OC)c(OC)c2)cc1O` [(D)]: the tubulin binding activity entry with tubulin [3] is “did not exhibit tubulin binding activity”. In the data set on tubulin [4], `COc1ccc2c(C(O)c3ccc(OC)c(O)c3)c(-c3cc(OC)c(OC)c(OC)c3)sc2c1` (centres unmarked) [BLF-34-3] displayed a 50% inhibitory concentration (IC50) of 6.1 ± 0.8 µM. In the data set with tubulin [1], the “Inhibition … (% inhibition), 5 μM inhibitor” value was 5% and the “Inhibition of colchicine binding (% inhibition), 50 μM inhibitor” value (“Inhibition … (% inhibition), 50 μM inhibitor” for short) amounted to 73%. In data set [2] (setting [6]), the IC50 is more than 1 µM.

In turn, `COc1ccc(-c2sc3cc4c(cc3c2C(=O)c2cc(OC)c(OC)c(OC)c2)OCO4)cc1O` [BLF-53-3, 2-(3′-Hydroxy-4′-methoxyphenyl)-5,6-methylendioxy-3-(3″,4″,5″-trimethoxybenzoyl)benzo[b]thiophene] returned a melting point of 156 to 157 °C. Also, the half-inhibitory concentration (IC50) with tubulin [4] is more than 40 µM. For the same molecule, in the data set with tubulin [1], the “Inhibition … (% inhibition), 5 μM inhibitor” value amounted to 2% and the “Inhibition … (% inhibition), 50 μM inhibitor” value came out at 31%. The IC50 in data set [2] (setting [6]) was more than 1 µM. Turning to `COc1ccc2c(-c3cc(OC)c(OC)c(OC)c3)c(-c3ccc(OC)c(O)c3)[nH]c2c1` [BLF-61-3, 6-Methoxy-2-(3-hydroxy-4-methoxyphenyl)-3-(3,4,5-trimethoxyphenyl)indole], the melting point lay within 98 to 99 °C. `COc1ccc2c(C(=O)c3cc(OC)c(OC)c(OC)c3)c(-c3ccc(OC)c(O)c3)oc2c1` [BLF-62-3, 6-Methoxy-2-(3-hydroxy-4-methoxyphenyl)-3-(3,4,5-trimethoxybenzoyl)benzo bifuran]: the melting point was in the range of 68 to 69 °C.

Molecule `COc1ccc(-c2oc3cc(OC)ccc3c2C(O)c2cc(OC)c(OC)c(OC)c2)cc1` (centres unmarked) [BLF-68-3] yielded a melting point of 53 to 54 °C. Same read-out and setting: in the case of `COc1ccc2c(C(O)c3cc(OC)c(OC)c(OC)c3)c(-c3ccc(OC)c(O)c3)oc2c1` (stereo not drawn) [BLF-69-3, 6-Methoxy-2-(3-hydroxy-4-methoxyphenyl)-3-[α-hydroxy-α-(3,4,5-trimethoxyphenyl)methyl]benzo[b]furan] it was 68 to 69 °C; in that of `COc1ccc(-c2oc3cc(OC)ccc3c2Cc2cc(OC)c(OC)c(OC)c2)cc1` [BLF-70-3, 6-Methoxy-2-(4-methoxyphenyl)-3-(3,4,5-trimethoxybenzyl)benzo[b]furan], 121 to 122 °C; in that of `COc1ccc2c(C(=O)c3cc(OC)c(OC)c(OC)c3)c(-c3ccc(OC)c(O)c3)sc2c1` [BLF-86-1, 2-(3′-Hydroxy-4′-methoxyphenyl)6-methoxy-3-(3″,4″,5″-trimethoxybenzoyl)benzo[b]thiophene], 123 to 125 °C.

`COc1ccc(-c2sccc2C(=O)c2cc(OC)c(OC)c(OC)c2)cc1O` [BLF-89-3] had a melting point of 151 to 152 °C. Also, the IC50 in data set [5] (MCF7, MCF-7 human breast carcinoma cell line, read-out: Inhibition of cell growth IC50 (MCF-7)) was 0.3 µM. The molecule further gave an IC50 with tubulin [4] of 1 ± 0.1 µM. Moreover, in the data set on tubulin [1], the “Inhibition … (% inhibition), 5 μM inhibitor” value turned out to be 67%.

In the data set on tubulin [4], `COc1ccc(C2=C(C(=O)c3cc(OC)c(OC)c(OC)c3)C(=O)c3cc(OC)c(OC)c(OC)c32)cc1O` [DK-12a-1, 3-(3′-Hydroxy-4′-methoxyphenyl)-4,5,6-trimethoxy-2-(3′,4″,5″-trimethoxybenzoyl)indenone] came in with an IC50 of 10 to 40 µM. For `COc1ccc(C2=C(c3cc(OC)c(OC)c(OC)c3)CCS2)cc1OC(C)=O` [GPF-60-1, 2-(3′-acetoxy-4′-methoxyphenyl)-4,5-dihydro-3-(3″,4″,5″-trimethoxyphenyl)thiophene], the IC50 in data set [5] (Homo sapiens, MCF7, read-out: Inhibition of cell growth IC50 (MCF-7)) turned out to be 0.39 µM; with tubulin [4], 3.6 ± 1 µM. For the same molecule, the “Inhibition … (% inhibition), 5 μM inhibitor” value in the data set with tubulin [1] was determined as 64%. In addition, the “Inhibition … (% inhibition), 50 μM inhibitor” value in the data set with tubulin [1] is reported as 88%. The molecule `COc1ccc(C(=O)c2cc3cc(O)c(OC)cc3s2)cc1O` [KH-2-2, 5-Hydroxy-2-(3′-hydroxy-4′-methoxybenzoyl)-6-methoxybenzo[b]thiophene] yielded an IC50 in the data set on tubulin [4] of 2.4 ± 0.4 µM.
